Experiment in all cases: Bliss excess, mean over the matrix (fraction); higher = more synergy
Assay [1] relates to EFM-19 (Breast Carcinoma). The gist of the method: (§1)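 Bliss excess equals the observed combination effect minus the expected value EA + EB − EA·EB, where EA and EB are the effects of each agent alone. Combination Emax is the second-highest inhibition within the matrix. Inhibition was scaled from CellTiter-Glo 2.0 luminescence, with 0 set by vehicle wells and 1 by blank wells, after 72 hours of two-drug dosing of cells plated in 1536-well plates.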

Assay [2] concerns Caov-4 (Ovarian Carcinoma). In short, it runs like this: as §1
The subject of assay [3] is KYSE-450 (Esophageal Squamous Cell Carcinoma). In short, it runs like this:
as §1

The subject of assay [4] is Hs-766T (Pancreatic Carcinoma). The gist of the method: as §1
For assay [5], the system named is NUGC-3 (Gastric Carcinoma). The gist of the method: as §1
For assay [6], the system named is LU-65 (Non-Small Cell Lung Carcinoma). In short, it runs like this: as §1
Assay [7] relates to KARPAS-299 (T-Cell Non-Hodgkin's Lymphoma). The gist of the method:
as §1

For another assay, the system named is YH-13 (Glioblastoma). The gist of the method: as §1
For assay [8], the system named is VA-ES-BJ (Other Solid Carcinomas). In short, it runs like this: as §1
A further assay relates to TGW (Neuroblastoma). In short, it runs like this:
as §1

The subject of assay [9] is NCI-H727 (Other Solid Carcinomas). The gist of the method:
as §1

Assay [10] relates to MLMA (Other Blood Carcinomas). In short, it runs like this:
as §1

The subject of assay [11] is EoL-1-cell (Acute Myeloid Leukemia). The gist of the method: as §1
Assay [12] concerns BT-549 (Breast Carcinoma). In short, it runs like this:
as §1

In a further assay the test system is PWR-1E (Non-Cancerous). In short, it runs like this: as §1
For assay [13], the system named is MIA-PaCa-2 (Pancreatic Carcinoma). In short, it runs like this:
as §1

Assay [14] deals with KMOE-2 (Acute Myeloid Leukemia). The gist of the method:
as §1

The subject of assay [15] is OSC-20 (Oral Cavity Carcinoma). The gist of the method: as §1
The test system of another assay is EW-24 (Ewing's Sarcoma). The gist of the method:
as §1

In assay [16] the test system is HOP-62 (Lung Adenocarcinoma). The gist of the method: as §1

The values below come from the supplement of paper PMC11061612.

`Cc1c2c(nn1C)CSCc1cc(n(C)n1)CSc1cc(c3ccccc3c1)OCCCc1c(C(=O)O)n(C)c3c-2c(Cl)ccc13` [AZD5991] + CCN(CCO)CCCOc1ccc2c(Nc3cc(CC(=O)Nc4cccc(F)c4)[nH]n3)ncnc2c1 [AZD2811] (first compound max 1 µM, 7x7, partner max 1 µM): the Bliss excess in assay [1] is 0.122; in [2], 0.0337; in [3], 0.0499; in [4] it was -0.0019; in assay [5], 0.0454; in assay [6], -0.0258. Further, the Bliss excess stood at 0.0426 in assay [7]; 0.0141 with YH-13 (Glioblastoma); 0.0703 in assay [8]; 0.0418 in the assay with TGW (Neuroblastoma); 0.0473 in assay [9]; 0.028 in assay [10]. Further, the Bliss excess in assay [11] stood at 0.0044; in [12], 0.0908; in the assay on PWR-1E (Non-Cancerous), 0.151; in [13], 0.0738; in assay [14], 0.0471; in [15] it was 0.0042. In addition, the Bliss excess with EW-24 (Ewing's Sarcoma) was -0.0172.

As for `Cc1c2c(nn1C)CSCc1cc(n(C)n1)CSc1cc(c3ccccc3c1)OCCCc1c(C(=O)O)n(C)c3c-2c(Cl)ccc13` [AZD5991] + CN(C)CCCOc1ccc(-c2ccc3ncc4c(c3c2)n(C2CCOCC2)c(=O)n4C)cn1 [AZD0156] (first compound max 1 µM, 7x7, partner max 1 µM), the Bliss excess in [1] is -0.03; in [2], -0.0035; in [3], 0.0134; in assay [4] it was -0.0006; in assay [5] it was 0.0167; in [6], -0.001. The Bliss excess in [7] is 0.016; in the assay with YH-13 (Glioblastoma), -0.0465; in assay [8], -0.0027; in the assay on TGW (Neuroblastoma) it was -0.0079; in assay [9], 0.043; in assay [10], -0.0056. Further, the Bliss excess was -0.006 in [11]; -0.004 in assay [12]; 0.027 with PWR-1E (Non-Cancerous); -0.0084 in assay [13]; -0.0526 in assay [14]; 0.0236 in assay [15]. In addition, the Bliss excess with EW-24 (Ewing's Sarcoma) turned out to be 0.0103.

Regarding `Cc1c2c(nn1C)CSCc1cc(n(C)n1)CSc1cc(c3ccccc3c1)OCCCc1c(C(=O)O)n(C)c3c-2c(Cl)ccc13` [AZD5991] + C[C@@H](Nc1cc(F)cc(F)c1)c1cc(C(=O)N(C)C)cc2c(=O)cc(N3CCOCC3)oc12 [AZD8186] (first compound max 1 µM, 7x7, partner max 3 µM), the Bliss excess in assay [1] was -0.0123; in assay [2], -0.0121; in assay [4], -0.111; in assay [5] it was 0.0052; in assay [6], -0.0428; in [7], 0.0185. Also, the Bliss excess is 0.0058 with YH-13 (Glioblastoma); 0.0068 in assay [8]; -0.0421 in assay [16]; -0.0155 in the assay with TGW (Neuroblastoma); 0.0239 in [9]; 0.0282 in assay [10]. Moreover, the Bliss excess in assay [11] is 0.0072; in assay [12], 0.0621; in the assay with PWR-1E (Non-Cancerous) it was -0.0134; in assay [13] it was -0.0095; in assay [14], -0.0378; in assay [15] it was -0.0335. Besides, the Bliss excess with EW-24 (Ewing's Sarcoma) is -0.0426.

Consider `Cc1c2c(nn1C)CSCc1cc(n(C)n1)CSc1cc(c3ccccc3c1)OCCCc1c(C(=O)O)n(C)c3c-2c(Cl)ccc13` [AZD5991] + Cn1cnc2c(F)c(Nc3ccc(Br)cc3Cl)c(C(=O)NOCCO)cc21 [Selumetinib] (first compound max 1 µM, 7x7, partner max 3 µM), for which the Bliss excess in assay [2] is 0.0604; in assay [3] it was 0.0036; in assay [4], -0.0859; in assay [5] it was 0.0106; in assay [6], 0.03; in assay [7] it was 0.0496. The Bliss excess in the assay on YH-13 (Glioblastoma) was -0.0347; in assay [8] it was 0.0207; in assay [16], -0.0626; in the assay with TGW (Neuroblastoma), 0.0029; in assay [9], 0.0213; in assay [10], 0.0463. Further, the Bliss excess in [11] was 0.0751; in [12], 0.0056; with PWR-1E (Non-Cancerous), -0.0294; in [13], 0.0197; in assay [14] it was -0.0227; in assay [15] it was 0.0146. In addition, the Bliss excess in the assay with EW-24 (Ewing's Sarcoma) is -0.017.

Consider `CS(=O)(=O)CCNCc1ccc(-c2ccc3ncnc(Nc4ccc(OCc5cccc(F)c5)c(Cl)c4)c3c2)o1` [Lapatinib] + NC1(c2ccc(-c3nc4ccn5c(=O)[nH]nc5c4cc3-c3ccccc3)cc2)CCC1 [MK-2206] (first compound max 10 µM, 7x7, partner max 10 µM), for which the Bliss excess was 0.0455 in assay [1]; -0.05 in assay [2]; -0.022 in assay [3]; -0.0629 in [4]; 0.0527 in [5]; 0.0099 in assay [6]. The Bliss excess in assay [7] is 0.0874; with YH-13 (Glioblastoma), -0.0154; in the assay with TGW (Neuroblastoma), -0.0033; in [9] it was 0.0172; in [10], -0.093; in assay [11] it was 0.0098. In addition, the Bliss excess in assay [12] was -0.0275; with PWR-1E (Non-Cancerous), 0.0309; in assay [13], 0.0112; in the assay with EW-24 (Ewing's Sarcoma), 0.0118.

As to `CCc1c2c(nc3ccc(O)cc13)-c1cc3c(c(=O)n1C2)COC(=O)[C@]3(O)CC` [SN-38] + O=C(c1cc(Cc2n[nH]c(=O)c3ccccc23)ccc1F)N1CCN(C(=O)C2CC2)CC1 [Olaparib] (first compound max 0.3 µM, 7x7, partner max 10 µM), the Bliss excess in [1] worked out at 0.0496; in assay [2], 0.0748; in [3] it was 0.0808; in [4], 0; in assay [6], 0.0282; in [7], 0.0404. The Bliss excess is 0.0927 in the assay with YH-13 (Glioblastoma); -0.0117 in assay [8]; 0.0562 in assay [16]; 0.06 in the assay with TGW (Neuroblastoma); -0.0075 in assay [9]; 0.038 in [10]. The Bliss excess in assay [11] was 0.135; in [12] it was 0.0589; in assay [13], 0.0701; in assay [14], 0.0555; in [15], -0.0034; in the assay with EW-24 (Ewing's Sarcoma), 0.0359.

On to `Cc1nc(-c2cn3c(n2)-c2ccc(-c4cnn(C(C)(C)C(N)=O)c4)cc2OCC3)n(C(C)C)n1` [Taselisib] + O=C(Nc1ccc2[nH]nc(-c3ccncc3)c2c1)[C@@H]1CCN(CC(=O)N2CCN(c3ccc(-c4ncccn4)cc3)CC2)C1 [SCH772984] (first compound max 10 µM, 7x7, partner max 5 µM), for which the Bliss excess was 0.0524 in assay [1]; 0.0269 in [2]; 0.0365 in assay [3]; -0.0386 in [4]; 0.214 in assay [6]; 0.147 in assay [7]. For the same molecule, the Bliss excess in the assay with YH-13 (Glioblastoma) is -0.0586; in the assay on TGW (Neuroblastoma) it was 0.033; in [9], 0.0252; in [10] it was 0.0548; in [11] it was 0.191; in [12], 0.047. Moreover, the values for the Bliss excess (in assay [13]; in the assay on EW-24 (Ewing's Sarcoma)) were 0.149 and 0.0424, respectively.

`CC1(C)CCC(CN2CCN(c3ccc(C(=O)NS(=O)(=O)c4ccc(NCC5CCOCC5)c([N+](=O)[O-])c4)c(Oc4cnc5[nH]ccc5c4)c3)CC2)=C(c2ccc(Cl)cc2)C1` [Venetoclax] + CS(=O)(=O)CCNCc1ccc(-c2ccc3ncnc(Nc4ccc(OCc5cccc(F)c5)c(Cl)c4)c3c2)o1 [Lapatinib] (first compound max 1 µM, 7x7, partner max 10 µM): the Bliss excess in assay [1] was -0.002; in assay [2], -0.0353; in [3], -0.0413; in assay [4] it was -0.0636; in assay [6], 0.0159; in assay [7] it was 0.0202. In addition, the Bliss excess is -0.04 with YH-13 (Glioblastoma); -0.0223 in the assay with TGW (Neuroblastoma); -0.012 in assay [9]; -0.0329 in assay [10]; 0.0351 in [11]; -0.0573 in [12]. Moreover, the Bliss excess in assay [13] is 0.0099; in the assay on EW-24 (Ewing's Sarcoma), -0.0183.
